Data from ChEMBL document CHEMBL1221301, “SAR studies of non-zinc-chelating MMP-13 inhibitors: improving selectivity and metabolic stability” (Bioorg Med Chem Lett, 2010).

Test system: not listed separately
Assay: Selectivity ratio of IC50 for MMP10 to IC50 for MMP13

| Ratio IC50 | SMILES |
| --- | --- |
| 32 | CNC(=O)[C@H](NC(=O)c1ccc(-c2cccc(CNC(=O)c3cn4ccc(C)cc4n3)c2)o1)C1CCCCC1 |
| 7 | CNC(=O)[C@H](NC(=O)c1ccc(-c2cccc(CNC(=O)c3cccnc3)c2)o1)C1CCCCC1 |
| 65 | CNC(=O)[C@H](NC(=O)c1ccc(-c2cccc(CNC(=O)c3ccccn3)c2)o1)C1CCCCC1 |
| 6 | CNC(=O)[C@H](NC(=O)c1ccc(-c2cccc(CNC(=O)c3ccco3)c2)o1)C1CCCCC1 |
| 9 | CNC(=O)[C@H](NC(=O)c1ccc(-c2cccc(CNC(=O)c3ccncn3)c2)o1)C1CCCCC1 |
| 29 | CNC(=O)[C@H](NC(=O)c1ccc(-c2cccc(CNC(=O)c3cn4cccc(C)c4n3)c2)o1)C1CCCCC1 |
| 14 | CNC(=O)[C@H](NC(=O)c1ccc(-c2cccc(CNC(=O)c3ccn(C)n3)c2)o1)C1CCCCC1 |
| 8 | CNC(=O)[C@H](NC(=O)c1ccc(-c2cccc(CNC(=O)c3ccoc3C)c2)o1)C1CCCCC1 |
| 87 | CNC(=O)[C@H](NC(=O)c1ccc(-c2cccc(CNC(=O)c3cccc(C)n3)c2)o1)C1CCCCC1 |
| 9 | CNC(=O)[C@H](NC(=O)c1ccc(-c2cccc(CNC(=O)c3nccn3C)c2)o1)C1CCCCC1 |
| 0.5 | CNC(=O)[C@H](NC(=O)c1ccc(-c2cccc(CNC(C)=O)c2)o1)C1CCCCC1 |
| 19 | CNC(=O)[C@H](NC(=O)c1ccc(-c2cccc(CNC(=O)c3cc(C)n(C)n3)c2)o1)C1CCCCC1 |

| SMILES | Ratio IC50 |
| --- | --- |
| CCc1cncc(C(=O)NCc2cccc(-c3ccc(C(=O)N[C@@H](C(=O)NC)C4CCCCC4)o3)c2)c1 | 45 |
| CNC(=O)[C@H](NC(=O)c1ccc(-c2cccc(CNC(=O)c3ccnc(Cl)n3)c2)o1)C1CCCCC1 | 27 |

Test system: not listed separately
Assay: Selectivity ratio of IC50 for MMP3 to IC50 for MMP13

| Ratio IC50 | SMILES |
| --- | --- |
| > 37 | CNC(=O)[C@H](NC(=O)c1ccc(-c2cccc(CNC(=O)c3cn4ccc(C)cc4n3)c2)o1)C1CCCCC1 |
| 200 | CNC(=O)[C@H](NC(=O)c1ccc(-c2cccc(CNC(=O)c3ccccn3)c2)o1)C1CCCCC1 |
| 15 | CNC(=O)[C@H](NC(=O)c1ccc(-c2cccc(CNC(=O)c3ccco3)c2)o1)C1CCCCC1 |
| > 45 | CNC(=O)[C@H](NC(=O)c1ccc(-c2cccc(CNC(=O)c3cn4cccc(C)c4n3)c2)o1)C1CCCCC1 |
| 33 | CNC(=O)[C@H](NC(=O)c1ccc(-c2cccc(CNC(=O)c3ccn(C)n3)c2)o1)C1CCCCC1 |
| 9 | CNC(=O)[C@H](NC(=O)c1ccc(-c2cccc(CNC(=O)c3ccoc3C)c2)o1)C1CCCCC1 |
| 240 | CNC(=O)[C@H](NC(=O)c1ccc(-c2cccc(CNC(=O)c3cccc(C)n3)c2)o1)C1CCCCC1 |
| > 64 | CNC(=O)[C@H](NC(=O)c1ccc(-c2cccc(CNC(=O)c3nccn3C)c2)o1)C1CCCCC1 |
| 3 | CNC(=O)[C@H](NC(=O)c1ccc(-c2cccc(CNC(C)=O)c2)o1)C1CCCCC1 |
| 51 | CNC(=O)[C@H](NC(=O)c1ccc(-c2cccc(CNC(=O)c3cc(C)n(C)n3)c2)o1)C1CCCCC1 |

| SMILES | Ratio IC50 |
| --- | --- |
| CCc1cncc(C(=O)NCc2cccc(-c3ccc(C(=O)N[C@@H](C(=O)NC)C4CCCCC4)o3)c2)c1 | > 170 |

Test system: not listed separately
Assay: Selectivity ratio of IC50 for MMP2 to IC50 for MMP13

| Ratio IC50 | SMILES |
| --- | --- |
| > 37 | CNC(=O)[C@H](NC(=O)c1ccc(-c2cccc(CNC(=O)c3cn4ccc(C)cc4n3)c2)o1)C1CCCCC1 |
| > 480 | CNC(=O)[C@H](NC(=O)c1ccc(-c2cccc(CNC(=O)c3cccnc3)c2)o1)C1CCCCC1 |
| > 2400 | CNC(=O)[C@H](NC(=O)c1ccc(-c2cccc(CNC(=O)c3ccccn3)c2)o1)C1CCCCC1 |
| > 270 | CNC(=O)[C@H](NC(=O)c1ccc(-c2cccc(CNC(=O)c3ccco3)c2)o1)C1CCCCC1 |
| 290 | CNC(=O)[C@H](NC(=O)c1ccc(-c2cccc(CNC(=O)c3ccncn3)c2)o1)C1CCCCC1 |
| > 45 | CNC(=O)[C@H](NC(=O)c1ccc(-c2cccc(CNC(=O)c3cn4cccc(C)c4n3)c2)o1)C1CCCCC1 |
| > 430 | CNC(=O)[C@H](NC(=O)c1ccc(-c2cccc(CNC(=O)c3ccn(C)n3)c2)o1)C1CCCCC1 |
| > 61 | CNC(=O)[C@H](NC(=O)c1ccc(-c2cccc(CNC(=O)c3ccoc3C)c2)o1)C1CCCCC1 |
| > 4900 | CNC(=O)[C@H](NC(=O)c1ccc(-c2cccc(CNC(=O)c3cccc(C)n3)c2)o1)C1CCCCC1 |
| > 64 | CNC(=O)[C@H](NC(=O)c1ccc(-c2cccc(CNC(=O)c3nccn3C)c2)o1)C1CCCCC1 |
| 5 | CNC(=O)[C@H](NC(=O)c1ccc(-c2cccc(CNC(C)=O)c2)o1)C1CCCCC1 |
| > 280 | CNC(=O)[C@H](NC(=O)c1ccc(-c2cccc(CNC(=O)c3cc(C)n(C)n3)c2)o1)C1CCCCC1 |

| SMILES | Ratio IC50 |
| --- | --- |
| CCc1cncc(C(=O)NCc2cccc(-c3ccc(C(=O)N[C@@H](C(=O)NC)C4CCCCC4)o3)c2)c1 | > 170 |
| CNC(=O)[C@H](NC(=O)c1ccc(-c2cccc(CNC(=O)c3ccnc(Cl)n3)c2)o1)C1CCCCC1 | 590 |

Molecular target: Collagenase 3 (Homo sapiens, UniProt P45452)

| IC50 | SMILES |
| --- | --- |
| 140 nM | CNC(=O)[C@H](NC(=O)c1ccc(-c2cccc(CNC(=O)c3cn4ccc(C)cc4n3)c2)o1)C1CCCCC1 |
| 42 nM | CNC(=O)[C@H](NC(=O)c1ccc(-c2cccc(CNC(=O)c3cccnc3)c2)o1)C1CCCCC1 |
| 8 nM | CNC(=O)[C@H](NC(=O)c1ccc(-c2cccc(CNC(=O)c3ccccn3)c2)o1)C1CCCCC1 |
| 75 nM | CNC(=O)[C@H](NC(=O)c1ccc(-c2cccc(CNC(=O)c3ccco3)c2)o1)C1CCCCC1 |
| 10 nM | CNC(=O)[C@H](NC(=O)c1ccc(-c2cccc(CNC(=O)c3ccncn3)c2)o1)C1CCCCC1 |
| 110 nM | CNC(=O)[C@H](NC(=O)c1ccc(-c2cccc(CNC(=O)c3cn4cccc(C)c4n3)c2)o1)C1CCCCC1 |
| 24 nM | CNC(=O)[C@H](NC(=O)c1ccc(-c2cccc(CNC(=O)c3ccn(C)n3)c2)o1)C1CCCCC1 |
| 330 nM | CNC(=O)[C@H](NC(=O)c1ccc(-c2cccc(CNC(=O)c3ccoc3C)c2)o1)C1CCCCC1 |
| 4 nM | CNC(=O)[C@H](NC(=O)c1ccc(-c2cccc(CNC(=O)c3cccc(C)n3)c2)o1)C1CCCCC1 |
| 310 nM | CNC(=O)[C@H](NC(=O)c1ccc(-c2cccc(CNC(=O)c3nccn3C)c2)o1)C1CCCCC1 |
| 3300 nM | CNC(=O)[C@H](NC(=O)c1ccc(-c2cccc(CNC(C)=O)c2)o1)C1CCCCC1 |
| 72 nM | CNC(=O)[C@H](NC(=O)c1ccc(-c2cccc(CNC(=O)c3cc(C)n(C)n3)c2)o1)C1CCCCC1 |

| SMILES | IC50 |
| --- | --- |
| CCc1cncc(C(=O)NCc2cccc(-c3ccc(C(=O)N[C@@H](C(=O)NC)C4CCCCC4)o3)c2)c1 | 29 nM |
| CNC(=O)[C@H](NC(=O)c1ccc(-c2cccc(CNC(=O)c3ccnc(Cl)n3)c2)o1)C1CCCCC1 | 3 nM |

Test system: not listed separately
Assay: Selectivity ratio of IC50 for MMP8 to IC50 for MMP13

| Ratio IC50 | SMILES |
| --- | --- |
| > 37 | CNC(=O)[C@H](NC(=O)c1ccc(-c2cccc(CNC(=O)c3cn4ccc(C)cc4n3)c2)o1)C1CCCCC1 |
| 48 | CNC(=O)[C@H](NC(=O)c1ccc(-c2cccc(CNC(=O)c3cccnc3)c2)o1)C1CCCCC1 |
| > 2400 | CNC(=O)[C@H](NC(=O)c1ccc(-c2cccc(CNC(=O)c3ccccn3)c2)o1)C1CCCCC1 |
| > 270 | CNC(=O)[C@H](NC(=O)c1ccc(-c2cccc(CNC(=O)c3ccco3)c2)o1)C1CCCCC1 |
| > 2000 | CNC(=O)[C@H](NC(=O)c1ccc(-c2cccc(CNC(=O)c3ccncn3)c2)o1)C1CCCCC1 |
| > 45 | CNC(=O)[C@H](NC(=O)c1ccc(-c2cccc(CNC(=O)c3cn4cccc(C)c4n3)c2)o1)C1CCCCC1 |
| > 820 | CNC(=O)[C@H](NC(=O)c1ccc(-c2cccc(CNC(=O)c3ccn(C)n3)c2)o1)C1CCCCC1 |
| > 61 | CNC(=O)[C@H](NC(=O)c1ccc(-c2cccc(CNC(=O)c3ccoc3C)c2)o1)C1CCCCC1 |
| > 4900 | CNC(=O)[C@H](NC(=O)c1ccc(-c2cccc(CNC(=O)c3cccc(C)n3)c2)o1)C1CCCCC1 |
| > 64 | CNC(=O)[C@H](NC(=O)c1ccc(-c2cccc(CNC(=O)c3nccn3C)c2)o1)C1CCCCC1 |
| > 7 | CNC(=O)[C@H](NC(=O)c1ccc(-c2cccc(CNC(C)=O)c2)o1)C1CCCCC1 |
| > 280 | CNC(=O)[C@H](NC(=O)c1ccc(-c2cccc(CNC(=O)c3cc(C)n(C)n3)c2)o1)C1CCCCC1 |

| SMILES | Ratio IC50 |
| --- | --- |
| CCc1cncc(C(=O)NCc2cccc(-c3ccc(C(=O)N[C@@H](C(=O)NC)C4CCCCC4)o3)c2)c1 | > 170 |
| CNC(=O)[C@H](NC(=O)c1ccc(-c2cccc(CNC(=O)c3ccnc(Cl)n3)c2)o1)C1CCCCC1 | > 7100 |
